# How the values were obtained:
# [1] = tested on: PPC-1 cells; test: Subcutaneous PPC-1 tumor implants in NOD/SCID mice; format: in vivo
# Protocol: To study the in vivo antineoplastic potency of JS-K, NOD/SCID mice were injected in the flanks subcutaneously with HL-60 or PPC-1 cells (2.5×10^6 cells per flank). When subcutaneous tumors were palpable, treatment with JS-K or an equal volume of vehicle (20% dimethyl sulfoxide in PBS) was started using the indicated doses and route. Tumor size was measured daily or every other day using a Vernier caliper. Tumor volume was calculated using the formula: width×length×[(width+length)/2]×0.5236. Fifteen to 20 days after tumor cell implantation, animals were sacrificed by CO2 inhalation and tumors were collected for histochemical analysis.
# Histological Analysis of Tumors. After sacrifice, subcutaneous tumors were dissected out, fixed in 10% formaldehyde and imbedded in paraffin. Four-um sections were cut and stained with Hematoxylin and Eosin.
# To determine if JS-K is cytotoxic to solid tumors, the effect of JS-K on the in vitro and in vivo growth of the prostate cancer cell line PPC-1 was studied. Similar to studies in HL-60 cells, indications are that JS-K appears to be a potent growth inhibitor for prostate cancer cells in vitro and in vivo. For the in vitro experiments, JS-K was added to PPC-1 cells at 1, 2, 3, 4, and 5 μM concentrations. […] For the in vivo experiments, NOD/SCID mice were inoculated subcutaneously with […] PPC-1 cells, as described above. When the subcutaneous tumors were measurable, JS-K was administered intravenously at a dose of 4 μmol/kg or an equal volume of vehicle 3 times per week.
# In order to determine whether JS-K inhibits the in vivo growth of solid tumor cells, NOD/SCID mice were implanted with 2.5×10^6 PPC-1 (prostate carcinoma) cells and treated with 4 μmol/kg JS-K or an equal volume of vehicle intravenously 3 times a week. Similar to the observation with HL-60 cells, JS-K treatment appeared to inhibit the growth of PPC-1 cells in vivo. Nineteen days after start of therapy, subcutaneous tumor implant volumes were 0.368±0.082 and 0.107±0.053 cm^3 (P=0.0073) in vehicle and JS-K-treated animals, respectively. […]
# [2] = tested on: 58 human cancer cell lines; format: cell-based
# Protocol: Anticancer screen of JS-K against the NCI 58 human cancer cell lines. Cells initially maintained in multiple T150 tissue-culture flasks were detached from the flasks by addition of 2-3 ml of 0.05% trypsin-EDTA when cells reached 70-90% confluency. Thereafter, trypsin was inactivated by addition of 10 ml of RPMI 1640 medium containing 5% fetal bovine serum. All cells were then transferred and seeded onto 96-well microtiter plates at densities between 5,000 and 30,000 cells per well. Three cell lines were inoculated per plate. The cells were grown in RPMI 1640 supplemented with 5% fetal bovine serum and 2 mM L-glutamine for 24 h at 37° C. to allow stabilization prior to addition of JS-K. A total of 58 human cancer cell lines were used for the broad screening. The stock solution of JS-K in DMSO was serially diluted with the RPMI 1640 medium and added immediately to the microtiter plates to produce five concentrations of JS-K, i.e., 10^−4, 10^−5, 10^−6, 10^−7 and 10^−8 M. JS-K was incubated with cells for 48 h.
# At the end of incubation, the cells were fixed in situ by 10% trichloroacetic acid, and washed five times with water and dried. Sulforhodamine B (0.4% in 1% acetic acid), a protein stain binding to basic amino acids of cellular macromolecules, was added to each well, and incubated for 10 min at room temperature. Unbound Sulforhodamine B is removed by washing five times with acetic acid. Then the plates were air-dried. Bound stain is solubilized with Tris buffer, and the optical densities were read at 515 nm. The optical densities generated from Sulforhodamine B staining are a function of cell mass and growth rate (Monks et al., 1991). Thus cells with small mass (e.g., leukemias) or relatively slow division rate (e.g., renal RXF393 and lung cancer HOP-92) were inoculated at the relatively high densities of 20,000-30,000 cells per well, while more rapidly dividing cells (e.g., colon HT29 and HCT-116 cell lines, and lung NCI-H460 cells) were inoculated at 5,000 cells per well. For the suspended leukemia cell subpanel, the cells were fixed to the bottom of the microtiter well by adding cold trichloroacetic acid (final concentration 16%) at the end of the drug-incubation period.
# The dose-response curve is created by plotting the % growth against the log10 of the corresponding JS-K concentrations for each cell line by disease subpanel group. Three horizontal lines are provided at the % growth values of 50, 0 and −50, respectively. Thus the molar JS-K concentrations corresponding to points where the curves cross these lines represent the interpolated values that cause 50% growth inhibition (GI50, the JS-K concentration causing a 50% reduction in the net protein increase in control cells), total growth inhibition (TGI, the JS-K concentration causing amount of protein at the end of incubation to be equal to the amount at the beginning) and 50% cell killing (LC50, the JS-K concentration causing a 50% reduction in the protein of treated cells at the end of the drug incubation, compared with that at the beginning, indicating a net loss of cells following drug treatment), respectively.
# [3] = tested on: DLD-1; test: DLD-1 solid tumor cell growth; format: cell-based
# Protocol: Cell Lines and Culture Conditions. HL-60, DLD1, and U937 cells were obtained from ATCC (Rockville, Md.). Meth A cells were from Dr. Wolfram Samlowski (University of Utah, Salt Lake City, Utah). The PPC-1 cell line was provided by Dr. Graeme Bolger (University of Alabama, Birmingham, Ala.). For the cell growth and apoptosis experiments, cells were cultured at a density of 150,000 cells/ml in RPMI-1640 with 10% fetal bovine serum at 37° C. in a 5% CO2 humidified atmosphere. Agents were added at the indicated concentrations 24 h after culture initiation. At the indicated time intervals, cells were harvested and washed twice in phosphate buffered saline (PBS) prior to processing for analysis of growth, differentiation, and apoptosis.
# Cell Growth, Differentiation and Apoptosis Assays. The number of viable cells was determined using the MTT assay according to the manufacturer's protocol (Promega, Madison, Wis.) or using a Coulter counter. […] The assay is useful in calorimetric quantitation of cell viability and proliferation. In contrast, cell differentiation was evaluated using Wright and Non-Specific Esterase (NSE) staining of cells collected on microscope slides by cytospin as previously described (Magrinat, G. et al. (1992) Blood 80: 1880-1884). […]
# [4] = 4 μmol/kg i.v. 3 times per week
compound,measurement,setting,value
"CCOC(=O)N1CCN(/[N+]([O-])=N/Oc2ccc([N+](=O)[O-])cc2[N+](=O)[O-])CC1 [JS-K, O^2-(2,4-dinitrophenyl) 1-[(4-ethoxycarbonyl)piperazin-1-yl]diazen-1-ium-1,2-diolate]",prostate cancer growth in vivo,[1]; [4],significant delay in prostate cancer growth in vivo
same,tumor histology (necrosis),[1]; [4],high degree of extensive tumor necrosis
same,subcutaneous tumor implant volume,"[1]; nineteen days after start of therapy, vehicle 0.368±0.082, P=0.0073",0.107±0.053 cm^3
same,CC50,[2],29.5 µM
same,relative sensitivity to cytostatic and cytotoxic effects,[2],most sensitive
same,GI50,"[2]; 58 human cell lines, 48 h",1.3 µM
same,mean TGI,"[2]; 58 human cell lines, 48 h",6.6 µM
same,inhibition against prostate cancer cell lines,[2]; prostate cancer cell lines,moderate inhibition
same,LC50s,"[2]; some cell lines within the colon, melanoma and breast cancer subpanels",more than 100 μM
same,IC50 relative to leukemia lines,[3],an order of magnitude greater than those for the two leukemia lines

# Source: patent US8404665B2, “In vivo use of glutathione S-transferase activated nitric oxide donors” (University of Utah Research Foundation, priority 2002, dated 2013)
